“And” between values parts separate entries of the source, which are not always exact repeats. Equal values may be shown once.
Tests used:
Type in all cases: cell-based, human
[1] = tested on: PANC1 cells; assay: ROS detection by confocal microscopy (DHE, MitoSox); conditions: PANC1, 1 h treatment; H2O2 200 µM, CDDP 10 µM, I5 20 µM, I6 20 µM
Experimental: Tumor cells were seeded at a density of 3 × 10^5 cells in 15 µm 8-well IBIDI plates and incubated overnight. […] Subsequently, cells were stained with 10 μM of dihydroethidium (DHE, cytosolic O2^·- probe, Sigma-Aldrich) or with 5 μM of Mitosox (mitochondrial O2^·- probe, Sigma-Aldrich) for 15–30 min[79] and then visualized on a confocal microscope (Confocal LSM 710 Zeiss, Biomedical Research Institute Alberto Sols, IIBm-CSIC-UAM, Madrid, Spain). The image analysis was realized using the software program Image J.

[2] = tested on: AGS cells; assay: ATP determination assay (bioluminescence); conditions: replicates
Experimental: (§1) ATP determination assay. […] The analysis was performed using the ATP Bioluminescense Assay Kit CLS II (Cat. no. 11699695001, Roche) according to the manufacturer’s instructions. […] Data were normalized to total protein using the BCA protein assay kit (Thermo Scientific).

[3] = tested on: PANC1 cells; assay: ATP determination assay (bioluminescence); conditions: replicates
Experimental: as §1

[4] = tested on: MKN45 cells; assay: ATP determination assay (bioluminescence); conditions: replicates
Experimental: as §1

[5] = tested on: PANC1 cells; assay: Seahorse XF OCR, ECAR and energy map; set-up: Basal resp. / Maximal resp. / SRC: unit not given here
Experimental: (§2) Oxygen Consumption Rate (OCR), Extra Cellular Acidification Rate (ECAR) and Energy map measurements. Cells were plated in XF HS Miniplates (Seahorse Bioscience) at a cellular density of 1 × 10^4 cells/well and incubated overnight. […] After an OCR baseline measurement, the minimum oxygen consumption was determined by adding 1.5 µM oligomycin (O) and the maximal respiration rate was assessed by adding 1 µM carbonyl cyanide p-trifluoro methoxyphenylhydrazone (FCCP, F). At the end of the experiment, the non-mitochondrial oxygen consumption was evaluated by adding both 0.5 µM rotenone (R) and antimycin (A). Experiments were run in a XF HS Mini analyzer (Seahorse Agilent), and raw data were normalized to total protein using a BCA protein assay kit (Cat. no. 23225, Thermo Scientific).

[6] = tested on: MKN45 cells; assay: Seahorse XF OCR, ECAR and energy map; set-up: Basal resp. / Maximal resp. / SRC: unit not given here
Experimental: as §2

CC(C)[NH][Pt@SP1]([I])([I])[NH]C(C)C [I6, cis-[PtI2(isopropylamine)2]]
DHE fluorescence intensity (per cell), cytosolic O2•− [1]: 98.4842 and 86.3637 and 85.797 and 82.1548 and 76.0203 and 75.3191
Mitosox fluorescence intensity (per cell), mitochondrial O2•− [1]: 91.9093 and 80.7891 and 70.3911 and 69.2294 and 66.6051 and 57.9644
ATP assay [2]: 0.001 nmoles ATP/mg prot and 0.003 nmoles ATP/mg prot and 0.01 nmoles ATP/mg prot and 0 nmoles ATP/mg prot and 0.005 nmoles ATP/mg prot and 0.002 nmoles ATP/mg prot
ATP assay [3]: 7880 nmoles ATP/mg prot and 13332.3 nmoles ATP/mg prot and 3956 nmoles ATP/mg prot and 3277.42 nmoles ATP/mg prot and 6180.37 nmoles ATP/mg prot and 5189.49 nmoles ATP/mg prot and 6520 nmoles ATP/mg prot and 7744.41 nmoles ATP/mg prot and 6743.81 nmoles ATP/mg prot
ATP assay [4]: 5246 nmoles ATP/mg prot and 3320.9 nmoles ATP/mg prot and 18883.3 nmoles ATP/mg prot and 23272 nmoles ATP/mg prot and 3325.73 nmoles ATP/mg prot and 3863.84 nmoles ATP/mg prot and 4434 nmoles ATP/mg prot and 3684.47 nmoles ATP/mg prot and 4201.47 nmoles ATP/mg prot
ECAR, Mean (energy map) ([5]; PANC1 (with I5)): 7.18 mpH/min/absorbance
OCR, Mean (energy map) ([5]; PANC1 (with I5)): 8.75 pmol/min/absorbance
ECAR (energy map) ([5]; PANC1 (with I6)): 32.52 mpH/min/absorbance
ECAR, Mean (energy map) ([5]; PANC1 (with I6)): 146.969 mpH/min/absorbance
OCR (energy map) ([5]; PANC1 (with I6)): 147 pmol/min/absorbance
OCR, Mean (energy map) ([5]; PANC1 (with I6)): 32.5207 pmol/min/absorbance
ATP-product. coupled resp. ([5]; PANC1, IC50 24 h): 76.46 and 74.62 and 73.2
Basal resp. ([5]; PANC1, IC50 24 h): 102.88 and 97.93 and 95.39
Maximal resp. ([5]; PANC1, IC50 24 h): 174.57 and 152.73 and 164.59
SRC ([5]; PANC1, IC50 24 h): 71.69 and 54.8 and 69.2
effect on ECAR ([5]; PANC1, IC50 24 h): no apparent effect
OCR ([5]; PANC1, IC50 24 h, time 1.53 min (I5) / 1.53 min (I6)): 159.562 pmoles/min/µg protein and 146.086 pmoles/min/µg protein and 145.09 pmoles/min/µg protein
OCR ([5]; PANC1, IC50 24 h, time 8.03 min (I5) / 8.01 min (I6)): 147.434 pmoles/min/µg protein and 135.357 pmoles/min/µg protein and 133.103 pmoles/min/µg protein
OCR ([5]; PANC1, IC50 24 h, time 14.5 min (I5) / 14.5 min (I6)): 143.038 pmoles/min/µg protein and 132.495 pmoles/min/µg protein and 129.978 pmoles/min/µg protein
OCR ([5]; PANC1, IC50 24 h, time 21.08 min (I5) / 21.07 min (I6)): 66.5745 pmoles/min/µg protein and 57.8765 pmoles/min/µg protein and 56.7739 pmoles/min/µg protein
OCR ([5]; PANC1, IC50 24 h, time 27.58 min (I5) / 27.55 min (I6)): 66.0035 pmoles/min/µg protein and 58.3571 pmoles/min/µg protein and 57.0179 pmoles/min/µg protein
OCR ([5]; PANC1, IC50 24 h, time 34.08 min (I5) / 34.04 min (I6)): 69.58 pmoles/min/µg protein and 62.2166 pmoles/min/µg protein and 61.4483 pmoles/min/µg protein
OCR ([5]; PANC1, IC50 24 h, time 40.66 min (I5) / 40.6 min (I6)): 214.725 pmoles/min/µg protein and 187.294 pmoles/min/µg protein and 199.178 pmoles/min/µg protein
OCR ([5]; PANC1, IC50 24 h, time 47.17 min (I5) / 47.09 min (I6)): 200.494 pmoles/min/µg protein and 175.489 pmoles/min/µg protein and 184.522 pmoles/min/µg protein
OCR ([5]; PANC1, IC50 24 h, time 53.68 min (I5) / 53.58 min (I6)): 196.779 pmoles/min/µg protein and 170.973 pmoles/min/µg protein and 177.854 pmoles/min/µg protein
OCR ([5]; PANC1, IC50 24 h, time 60.22 min (I5) / 60.14 min (I6)): 40.9467 pmoles/min/µg protein and 34.6667 pmoles/min/µg protein and 34.4666 pmoles/min/µg protein
OCR ([5]; PANC1, IC50 24 h, time 66.71 min (I5) / 66.63 min (I6)): 41.5272 pmoles/min/µg protein and 35.8152 pmoles/min/µg protein and 35.5577 pmoles/min/µg protein
OCR ([5]; PANC1, IC50 24 h, time 73.19 min (I5) / 73.15 min (I6)): 40.1567 pmoles/min/µg protein and 34.5626 pmoles/min/µg protein and 34.5904 pmoles/min/µg protein
ECAR, Mean (energy map) ([6]; MKN45 (with I5)): 17.85 mpH/min/absorbance
OCR, Mean (energy map) ([6]; MKN45 (with I5)): 73.36 pmol/min/absorbance
ECAR (energy map) ([6]; MKN45 (with I6)): 73.12 mpH/min/absorbance
ECAR, Mean (energy map) ([6]; MKN45 (with I6)): 230.729 mpH/min/absorbance
OCR (energy map) ([6]; MKN45 (with I6)): 230.7 pmol/min/absorbance
OCR, Mean (energy map) ([6]; MKN45 (with I6)): 73.1182 pmol/min/absorbance
